Measurements reported in patent US5827895A, “Hexahydrolupulones useful as anticancer agents” (Regents of the University of Minnesota, priority 1996, dated 1998).
In brackets after ≈: the same amount, converted by molar mass. Where two headings read alike, the source gives them in different places.

Assays:
[1] = tested on: MRSA (Methicillin resistant Staphylococcus A.); experiment: Minimum inhibitory concentration, MRSA; type: cell-based, Staphylococcus aureus
[2] = tested on: Listeria monocytogenes; conditions: U.S. Pat. Nos. 5,286,506; 5,455,038; cited from earlier work
[3] = tested on: Staphylococcus Aureas; experiment: Minimum inhibitory concentration, Staphylococcus aureus; type: cell-based
[4] = tested on: E. Coli; experiment: Minimum inhibitory concentration, E. coli; conditions: Escherichia coli
[5] = tested on: Pseudomonas; experiment: Minimum inhibitory concentration, Pseudomonas

For `CC(C)CCC1=C(O)C(C(=O)C(C)C)=C(O)C(CCC(C)C)(CCC(C)C)C1=O` [HHC, hexahydrocolupulone], the MIC ([1]; MRSA) is given as 2.5 µM (≈ 1.02 µg/mL), the “cross resistance with other antibiotics” value ([1]; drug resistant MRSA) is given as “HHC is not” and the “growth inhibition of food pathogens” value [2] is given as “can inhibit the growth of food pathogens, such as Listeria monocytogenes”. It also gave an MIC ([3]; Staphylococcus Aureas, read-out: MIC) of 5 µM, an MIC ([3]; read-out: MIC, HHC positive control) of 2.03 µg/mL and an MIC [4] greater than 100 µM. For the same compound, the MIC ([4]; read-out: MIC, HHC negative control) was 100 µg/mL and the MIC [5] was greater than 100 µM.
